Experimental data as given in patent US8192962B2, “Processes for detecting toxic substances” (Daikin Industries, Ltd., priority 2001, dated 2012).

Tested on: Genes belonging to other category
Assay: DNA chip mRNA expression in yeast, genes belonging to other category (Table 9)
Assay type: cell-based, Saccharomyces cerevisiae S288C
Method in brief: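 Expression change after 2 h toxicant exposure (growth-inhibiting, sub-lethal) of log-phase S. cerevisiae S288C at 25° C. Oligo-dT-purified mRNA was labeled with Cy3-dUTP or Cy5-dUTP and hybridized >12 h at 65° C. to a genome-wide chip; ratio of scanned fluorescence to control.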

CCCCCCCCCCCCOS(=O)(=O)[O-].[Na+] [(18), sodium lauryl sulfate]
The level of expressed mRNA in the presence of chemical substance/The level of expressed mRNA in the absence of chemical substance (yeast gene YAR010C): 1.0
The level of expressed mRNA in the presence of chemical substance/The level of expressed mRNA in the absence of chemical substance (yeast gene YBL005W-A): 1.0
The level of expressed mRNA in the presence of chemical substance/The level of expressed mRNA in the absence of chemical substance (yeast gene YBL041W): 2.0
The level of expressed mRNA in the presence of chemical substance/The level of expressed mRNA in the absence of chemical substance (yeast gene YBL043W): 1.8
The level of expressed mRNA in the presence of chemical substance/The level of expressed mRNA in the absence of chemical substance (yeast gene YBL078C): 2.8
The level of expressed mRNA in the presence of chemical substance/The level of expressed mRNA in the absence of chemical substance (yeast gene YBL101C): 1.1
The level of expressed mRNA in the presence of chemical substance/The level of expressed mRNA in the absence of chemical substance (yeast gene YBL101W-A): 1.2
The level of expressed mRNA in the presence of chemical substance/The level of expressed mRNA in the absence of chemical substance (yeast gene YBR009C): 2.4
The level of expressed mRNA in the presence of chemical substance/The level of expressed mRNA in the absence of chemical substance (yeast gene YBR076W): 1.2
The level of expressed mRNA in the presence of chemical substance/The level of expressed mRNA in the absence of chemical substance (yeast gene YBR170C): 1.4
The level of expressed mRNA in the presence of chemical substance/The level of expressed mRNA in the absence of chemical substance (yeast gene YBR173C): 1.6
The level of expressed mRNA in the presence of chemical substance/The level of expressed mRNA in the absence of chemical substance (yeast gene YBR177C): 0.9
The level of expressed mRNA in the presence of chemical substance/The level of expressed mRNA in the absence of chemical substance (yeast gene YBR214W): 1.2
The level of expressed mRNA in the presence of chemical substance/The level of expressed mRNA in the absence of chemical substance (yeast gene YBR239C): 0.9
The level of expressed mRNA in the presence of chemical substance/The level of expressed mRNA in the absence of chemical substance (yeast gene YBR286W): 1.6
The level of expressed mRNA in the presence of chemical substance/The level of expressed mRNA in the absence of chemical substance (yeast gene YCL020W): 1.3
The level of expressed mRNA in the presence of chemical substance/The level of expressed mRNA in the absence of chemical substance (yeast gene YCL027W): 0.8
The level of expressed mRNA in the presence of chemical substance/The level of expressed mRNA in the absence of chemical substance (yeast gene YCR004C): 3.5
The level of expressed mRNA in the presence of chemical substance/The level of expressed mRNA in the absence of chemical substance (yeast gene YCR038C): 1.1
The level of expressed mRNA in the presence of chemical substance/The level of expressed mRNA in the absence of chemical substance (yeast gene YCR067C): 0.9
The level of expressed mRNA in the presence of chemical substance/The level of expressed mRNA in the absence of chemical substance (yeast gene YCR071C): 1.3
The level of expressed mRNA in the presence of chemical substance/The level of expressed mRNA in the absence of chemical substance (yeast gene YCR088W): 0.9
The level of expressed mRNA in the presence of chemical substance/The level of expressed mRNA in the absence of chemical substance (yeast gene YCR106W): 1.2
The level of expressed mRNA in the presence of chemical substance/The level of expressed mRNA in the absence of chemical substance (yeast gene YDL008W): 1.6
The level of expressed mRNA in the presence of chemical substance/The level of expressed mRNA in the absence of chemical substance (yeast gene YDL065C): 1.2
The level of expressed mRNA in the presence of chemical substance/The level of expressed mRNA in the absence of chemical substance (yeast gene YDL192W): 2.3
The level of expressed mRNA in the presence of chemical substance/The level of expressed mRNA in the absence of chemical substance (yeast gene YDL220C): 0.9
The level of expressed mRNA in the presence of chemical substance/The level of expressed mRNA in the absence of chemical substance (yeast gene YDL230W): 1.2
The level of expressed mRNA in the presence of chemical substance/The level of expressed mRNA in the absence of chemical substance (yeast gene YDL238C): 1.3
The level of expressed mRNA in the presence of chemical substance/The level of expressed mRNA in the absence of chemical substance (yeast gene YDR022C): 1.2
The level of expressed mRNA in the presence of chemical substance/The level of expressed mRNA in the absence of chemical substance (yeast gene YDR041W): 2.5
The level of expressed mRNA in the presence of chemical substance/The level of expressed mRNA in the absence of chemical substance (yeast gene YDR055W): 1.9
The level of expressed mRNA in the presence of chemical substance/The level of expressed mRNA in the absence of chemical substance (yeast gene YDR084C): 1.3
The level of expressed mRNA in the presence of chemical substance/The level of expressed mRNA in the absence of chemical substance (yeast gene YDR085C): 1.8
The level of expressed mRNA in the presence of chemical substance/The level of expressed mRNA in the absence of chemical substance (yeast gene YDR104C): 1.0
The level of expressed mRNA in the presence of chemical substance/The level of expressed mRNA in the absence of chemical substance (yeast gene YDR115W): 1.4
The level of expressed mRNA in the presence of chemical substance/The level of expressed mRNA in the absence of chemical substance (yeast gene YDR125C): 1.2
The level of expressed mRNA in the presence of chemical substance/The level of expressed mRNA in the absence of chemical substance (yeast gene YDR168W): 1.4
The level of expressed mRNA in the presence of chemical substance/The level of expressed mRNA in the absence of chemical substance (yeast gene YDR169C): 1.1
The level of expressed mRNA in the presence of chemical substance/The level of expressed mRNA in the absence of chemical substance (yeast gene YDR181C): 1.2
The level of expressed mRNA in the presence of chemical substance/The level of expressed mRNA in the absence of chemical substance (yeast gene YDR188W): 0.8
The level of expressed mRNA in the presence of chemical substance/The level of expressed mRNA in the absence of chemical substance (yeast gene YDR259C): 0.8
The level of expressed mRNA in the presence of chemical substance/The level of expressed mRNA in the absence of chemical substance (yeast gene YDR264C): 1.4
The level of expressed mRNA in the presence of chemical substance/The level of expressed mRNA in the absence of chemical substance (yeast gene YDR315C): 1.2
The level of expressed mRNA in the presence of chemical substance/The level of expressed mRNA in the absence of chemical substance (yeast gene YDR358W): 1.9
The level of expressed mRNA in the presence of chemical substance/The level of expressed mRNA in the absence of chemical substance (yeast gene YDR373W): 1.6
The level of expressed mRNA in the presence of chemical substance/The level of expressed mRNA in the absence of chemical substance (yeast gene YDR388W): 1.3
